From patent US20170217976A1, “6-(AMINO ACID)-MORPHINAN DERIVATIVES IN COMBINATION WITH PERMEATION […] FOR USE AS AN ORALLY, […], TRA[…] NASALLY AD[…]” (C[…], priority 2014, published 2017)
Like-named read-outs stand apart in the source and are kept apart here.

Columns and labels:
[1] = target: T1, KOR (Cavia porcellus, UniProt P41144); assay: Opioid receptor binding, KOR, guinea pig brain membranes
T1 construct: from tissue

[2] = target: T2, MOR (Rattus norvegicus, UniProt P33535); assay: Opioid receptor binding, MOR, rat brain membranes
T2 construct: from tissue
T2 sequence (P33535 whole entry): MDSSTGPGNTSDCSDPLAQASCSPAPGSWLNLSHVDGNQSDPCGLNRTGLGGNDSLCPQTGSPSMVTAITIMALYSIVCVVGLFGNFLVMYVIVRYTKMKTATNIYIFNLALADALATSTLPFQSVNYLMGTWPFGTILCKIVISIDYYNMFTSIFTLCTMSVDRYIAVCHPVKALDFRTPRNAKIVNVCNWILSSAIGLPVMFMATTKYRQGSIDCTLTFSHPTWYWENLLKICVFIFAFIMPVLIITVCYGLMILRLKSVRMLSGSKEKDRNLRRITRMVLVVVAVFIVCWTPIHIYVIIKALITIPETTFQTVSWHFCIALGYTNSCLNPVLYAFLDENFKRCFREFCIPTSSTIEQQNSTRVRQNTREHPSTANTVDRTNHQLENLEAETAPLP

[3] = target: T3, DOR (Rattus norvegicus, UniProt P33533); assay: Opioid receptor binding, DOR, rat brain membranes
T3 construct: from tissue
T3 sequence (P33533 whole entry): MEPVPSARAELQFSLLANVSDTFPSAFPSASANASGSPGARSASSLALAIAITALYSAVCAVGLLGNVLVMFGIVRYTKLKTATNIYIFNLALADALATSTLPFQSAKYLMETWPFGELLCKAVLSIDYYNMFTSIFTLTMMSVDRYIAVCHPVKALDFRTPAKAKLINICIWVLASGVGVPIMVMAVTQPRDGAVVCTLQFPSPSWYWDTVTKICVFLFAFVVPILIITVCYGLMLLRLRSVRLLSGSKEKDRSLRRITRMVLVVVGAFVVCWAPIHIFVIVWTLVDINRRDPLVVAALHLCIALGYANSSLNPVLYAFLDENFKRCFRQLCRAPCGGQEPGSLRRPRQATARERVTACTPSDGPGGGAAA

[4] = Binding Ki (nM) KOR, in vitro binding assay, guinea pig brain membranes
[5] = Binding Ki (nM) MOR, in vitro binding assay, rat brain membranes
[6] = Binding Ki (nM) DOR, in vitro binding assay, rat brain membranes
[7] = in vitro binding assay, guinea pig brain membranes, read-out: Binding Ki (nM) KOR
[8] = in vitro binding assay, rat brain membranes, read-out: Binding Ki (nM) MOR
[9] = in vitro binding assay, rat brain membranes, read-out: Binding Ki (nM) DOR
[10] = Binding Ki KOR, Table 2-6, guinea pig brain membranes
[11] = Binding Ki MOR, Table 2-6, rat brain membranes
[12] = Binding Ki DOR, Table 2-6, rat brain membranes
[13] = Binding Ki KOR, Table 1-4, guinea pig brain membranes
[14] = Binding Ki MOR, Table 1-4, rat brain membranes
[15] = Binding Ki DOR, Table 1-4, rat brain membranes
[16] = Binding Ki KOR, Table 1-6, guinea pig brain membranes
[17] = Binding Ki MOR, Table 1-6, rat brain membranes
[18] = Binding Ki DOR, Table 1-6, rat brain membranes

T1 sequence (P41144 whole entry): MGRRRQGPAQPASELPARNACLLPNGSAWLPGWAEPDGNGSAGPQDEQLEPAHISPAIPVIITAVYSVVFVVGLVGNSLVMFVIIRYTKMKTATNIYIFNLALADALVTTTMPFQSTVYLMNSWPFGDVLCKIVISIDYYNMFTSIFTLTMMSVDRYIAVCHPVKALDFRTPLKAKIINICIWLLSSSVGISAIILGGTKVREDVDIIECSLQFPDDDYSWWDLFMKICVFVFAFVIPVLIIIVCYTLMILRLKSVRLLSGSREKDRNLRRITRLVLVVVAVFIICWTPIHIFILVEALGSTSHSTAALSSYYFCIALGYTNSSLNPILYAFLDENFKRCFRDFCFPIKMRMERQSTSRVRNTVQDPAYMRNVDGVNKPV

SMILES: CO[C@@]12CC[C@@H](N[C@@H](CC(C)C)C(=O)OC(C)(C)C)[C@@H]3Oc4c(O)ccc5c4[C@@]31CCN(C)[C@@H]2C5 [41-t-Bu ester]
- Ki [1, 4]: 240 nM
- Ki [2, 5]: 0.57 nM
- Ki [3, 6]: 0.42 nM

SMILES: CO[C@@]12CC[C@@H](N[C@@H](Cc3ccccc3)C(=O)O)[C@@H]3Oc4c(O)ccc5c4[C@@]31CCN(CC1CC1)[C@@H]2C5 [Compound 58]
- Ki ([1]; Table 2-6, guinea pig brain membranes, read-out: Binding Ki KOR): 8.42 nM
- Ki ([2]; Table 2-6, rat brain membranes, read-out: Binding Ki MOR): 1.23 nM
- Ki ([3]; Table 2-6, rat brain membranes, read-out: Binding Ki DOR): 2.02 nM

SMILES: CN1CCC23c4c5ccc(O)c4OC2C(NCC(=O)OC(C)(C)C)CCC3(OCCCc2ccccc2)C1C5 (stereo not drawn) [7-t-Bu ester]
- Ki [1, 7]: 1.26 nM
- Ki [2, 8]: 1.4 nM
- Ki [3, 9]: 1.01 nM

SMILES: CO[C@@]12CC[C@@H](NCC(=O)OC(C)(C)C)[C@@H]3Oc4c(O)ccc5c4[C@@]31CCN(C)[C@@H]2C5 [HS731-t-Bu ester]
- Ki [1, 7]: 56.2 nM
- Ki [2, 5]: 1.3 nM
- Ki [3, 9]: 0.68 nM

SMILES: CO[C@@]12CC[C@@H](NCCC(=O)OC(C)(C)C)[C@@H]3Oc4c(O)ccc5c4[C@@]31CCN(CC1CC1)[C@@H]2C5 [64-tBu ester]
- Ki [1, 10]: 2.13 nM
- Ki [2, 11]: 1.52 nM
- Ki [3, 12]: 0.91 nM

SMILES: COC12CCC(NC(C(=O)O)C(C)C)C3Oc4c(O)ccc5c4C31CCN(C)C2C5 (single isomer, unassigned) [Compound 30]
- Ki [1, 4]: 202 nM
- Ki [1, 13]: 202 nM
- Ki [2, 5]: 1.7 nM
- Ki [2, 14]: 1.7 nM
- Ki [3, 6]: 1.93 nM
- Ki [3, 15]: 1.93 nM

SMILES: COC12CCC(NC(C(=O)O)C(C)C)C3Oc4c(O)ccc5c4C31CCN(C)C2C5 (single isomer, unassigned) [Compound 29]
- Ki [1, 4]: 305 nM
- Ki [1, 13]: 305 nM
- Ki [2, 5]: 3.04 nM
- Ki [2, 14]: 3.04 nM
- Ki [3, 6]: 3.52 nM
- Ki [3, 15]: 3.52 nM

SMILES: CO[C@@]12CC[C@H](N[C@@H](CC(C)C)C(=O)OC(C)(C)C)[C@@H]3Oc4c(O)ccc5c4[C@@]31CCN(CC1CC1)[C@@H]2C5 [76-tBu ester]
- Ki [1, 10]: 0.8 nM
- Ki [2, 11]: 0.13 nM
- Ki [3, 12]: 0.092 nM

SMILES: CO[C@@]12CC[C@@H](NCCCC(=O)OC(C)(C)C)[C@@H]3Oc4c(O)ccc5c4[C@@]31CCN(CC1CC1)[C@@H]2C5 [66-tBu ester]
- Ki [1, 10]: 2.81 nM
- Ki [2, 11]: 2.13 nM
- Ki [3, 12]: 3.78 nM

SMILES: CO[C@@]12CC[C@@H](NCC(=O)OCc3ccccc3)[C@@H]3Oc4c(O)ccc5c4[C@@]31CCN(C)[C@@H]2C5 [HS731-benzyl ester]
- Ki [1, 7]: 2.86 nM
- Ki [2, 5]: 0.29 nM
- Ki [3, 9]: 0.74 nM

SMILES: CO[C@@]12CC[C@H](N[C@@H](CCSC)C(=O)OC(C)(C)C)[C@@H]3Oc4c(O)ccc5c4[C@@]31CCN(C)[C@@H]2C5 [23-t-Bu ester]
- Ki [1, 7]: 10.5 nM
- Ki [2, 8]: 0.32 nM
- Ki [3, 9]: 0.12 nM

SMILES: CC[C@H](C)[C@H](N[C@@H]1CC[C@@]2(OC)[C@H]3Cc4ccc(O)c5c4[C@@]2(CCN3C)[C@H]1O5)C(=O)O [Compound 43]
- Ki [1, 4]: 163 nM
- Ki [1, 13]: 163 nM
- Ki [2, 5]: 1.46 nM
- Ki [2, 14]: 1.46 nM
- Ki [3, 6]: 1.3 nM
- Ki [3, 15]: 1.3 nM

SMILES: CO[C@@]12CC[C@@H](N[C@@H](CO)C(=O)OC(C)(C)C)[C@@H]3Oc4c(O)ccc5c4[C@@]31CCN(C)[C@@H]2C5 [37-t-Bu ester]
- Ki [1, 7]: 83.3 nM
- Ki [2, 8]: 0.6 nM
- Ki [3, 9]: 0.64 nM

SMILES: CO[C@@]12CC[C@@H](N[C@@H](CCC(=O)OC(C)(C)C)C(=O)OC(C)(C)C)[C@@H]3Oc4c(O)ccc5c4[C@@]31CCN(C)[C@@H]2C5 [20-t-Bu ester]
- Ki [1, 7]: 81.5 nM
- Ki [2, 8]: 1.53 nM
- Ki [3, 9]: 0.19 nM

SMILES: CO[C@@]12CC[C@@H](N[C@@H](CC(C)C)C(=O)OC(C)(C)C)[C@@H]3Oc4c(O)ccc5c4[C@@]31CCN(CC1CC1)[C@@H]2C5 [77-tBu ester]
- Ki [1, 10]: 0.68 nM
- Ki [2, 11]: 0.13 nM
- Ki [3, 12]: 0.094 nM

SMILES: CN1CCC23c4c5ccc(O)c4OC2C(NCC(=O)OC(C)(C)C)CCC3(OCCCc2ccccc2)C1C5 (stereo not drawn) [8-t-Bu ester]
- Ki [1, 7]: 2.02 nM
- Ki [2, 8]: 1.03 nM
- Ki [3, 9]: 0.92 nM

SMILES: CO[C@@]12CC[C@H](N[C@@H](CC(N)=O)C(=O)OC(C)(C)C)[C@@H]3Oc4c(O)ccc5c4[C@@]31CCN(C)[C@@H]2C5 [26-t-Bu ester]
- Ki [1, 7]: 5.33 nM
- Ki [2, 8]: 0.45 nM
- Ki [3, 9]: 0.33 nM

SMILES: CCO[C@@]12CC[C@H](NCC(=O)OC(C)(C)C)[C@@H]3Oc4c(O)ccc5c4[C@@]31CCN(C)[C@@H]2C5 [5-t-Bu ester]
- Ki [1, 4]: 15 nM
- Ki [2, 5]: 0.2 nM
- Ki [3, 6]: 0.31 nM

SMILES: CO[C@@]12CC[C@@H](N[C@@H](CCCCN)C(=O)O)[C@@H]3Oc4c(O)ccc5c4[C@@]31CCN(C)[C@@H]2C5 [Compound 39]
- Ki ([1]; Table 1-4, guinea pig brain membranes, read-out: Binding Ki KOR): 33.7 nM
- Ki [1, 7]: 33.7 nM
- Ki ([2]; Table 1-4, rat brain membranes, read-out: Binding Ki MOR): 0.53 nM
- Ki [2, 8]: 0.53 nM
- Ki ([3]; Table 1-4, rat brain membranes, read-out: Binding Ki DOR): 3.34 nM
- Ki [3, 9]: 3.34 nM

SMILES: CO[C@@]12CC[C@@H](N[C@@H](CC(=O)O)C(=O)O)[C@@H]3Oc4c(O)ccc5c4[C@@]31CCN(CC1CC1)[C@@H]2C5 [Compound 73]
- Ki [1, 16]: 11.7 nM
- Ki [1, 10]: 11.7 nM
- Ki [2, 17]: 2.24 nM
- Ki [2, 11]: 2.24 nM
- Ki [3, 18]: 0.64 nM
- Ki [3, 12]: 0.64 nM

SMILES: CO[C@@]12CC[C@@H](N[C@@H](C)C(=O)OC(C)(C)C)[C@@H]3Oc4c(O)ccc5c4[C@@]31CCN(C)[C@@H]2C5 [2-t-Bu ester]
- Ki [1, 4]: 93.6 nM
- Ki [2, 5]: 1.13 nM
- Ki [3, 6]: 1.36 nM

SMILES: O=C(O)CN[C@H]1CC[C@@]2(O)[C@H]3Cc4ccc(O)c5c4[C@@]2(CCN3CC2CC2)[C@H]1O5 [Compound 67]
- Ki [1, 16]: 2.81 nM
- Ki [2, 17]: 0.88 nM
- Ki [3, 18]: 13.1 nM

SMILES: CCO[C@@]12CC[C@@H](N[C@@H](Cc3ccccc3)C(=O)OC(C)(C)C)[C@@H]3Oc4c(O)ccc5c4[C@@]31CCN(CC1CC1)[C@@H]2C5 [56-tBu ester]
- Ki [1, 10]: 17.9 nM
- Ki [2, 11]: 2 nM
- Ki [3, 12]: 6.33 nM

SMILES: CO[C@@]12CC[C@H](N[C@@H](CCC(N)=O)C(=O)O)[C@@H]3Oc4c(O)ccc5c4[C@@]31CCN(C)[C@@H]2C5 [Compound 17]
- Ki [1, 4]: 351 nM
- Ki [1, 13]: 351 nM
- Ki [2, 5]: 3.24 nM
- Ki [2, 14]: 3.24 nM
- Ki [3, 6]: 5.13 nM
- Ki [3, 15]: 5.13 nM

SMILES: CO[C@@]12CC[C@H](N[C@@H](CCCCN)C(=O)OC(C)(C)C)[C@@H]3Oc4c(O)ccc5c4[C@@]31CCN(C)[C@@H]2C5 [38-t-Bu ester]
- Ki [1, 7]: 0.89 nM
- Ki [2, 8]: 0.17 nM
- Ki [3, 9]: 0.092 nM

SMILES: CCC(C)C(NC1CCC2(OC)C3Cc4ccc(O)c5c4C2(CCN3C)C1O5)C(=O)OC(C)(C)C (single isomer, unassigned) [43-t-Bu ester]
- Ki [1, 4]: 208 nM
- Ki [2, 5]: 2.87 nM
- Ki [3, 6]: 2.12 nM

SMILES: COC12CCC(NC(C)C(=O)O)C3Oc4c(O)ccc5c4C31CCN(C)C2C5 (single isomer, unassigned) [Compound 54]
- Ki [1, 13]: 142 nM
- Ki [3, 15]: 11.3 nM

SMILES: CO[C@@]12CC[C@H](NCC(=O)OC(C)(C)C)[C@@H]3Oc4c(O)ccc5c4[C@@]31CCN(C)[C@@H]2C5 [HS730-t-Bu ester]
- Ki [1, 4]: 12.1 nM
- Ki [3, 6]: 0.54 nM

SMILES: COC12CCC(NC(C)C(=O)O)C3Oc4c(O)ccc5c4C31CCN(C)C2C5 (single isomer, unassigned) [Compound 2]
- Ki [1, 4]: 63.7 nM
- Ki [1, 13]: 63.7 nM
- Ki [3, 6]: 7.71 nM
- Ki [3, 15]: 7.71 nM

SMILES: COC12CCC(NC(C)C(=O)O)C3Oc4c(O)ccc5c4C31CCN(C)C2C5 (single isomer, unassigned) [Compound 1]
- Ki [1, 4]: 142 nM
- Ki [1, 13]: 142 nM
- Ki [3, 6]: 26.9 nM
- Ki [3, 15]: 26.9 nM

SMILES: CO[C@@]12CC[C@@H](N[C@@H](Cc3ccccc3)C(=O)OC(C)(C)C)[C@@H]3Oc4c(O)ccc5c4[C@@]31CCN(C)[C@@H]2C5 [4-t-Bu ester]
- Ki [2, 5]: 2.56 nM
- Ki [3, 9]: 2.66 nM

SMILES: CO[C@@]12CC[C@@H](N[C@@H](C)C(=O)OC(C)(C)C)[C@@H]3Oc4c(O)ccc5c4[C@@]31CCN(CC1CC1)[C@@H]2C5 [72-tBu ester]
- Ki [1, 10]: 9.68 nM
- Ki [3, 12]: 0.32 nM

SMILES: COC12CCC(NC(C)C(=O)O)C3Oc4c(O)ccc5c4C31CCN(C)C2C5 (single isomer, unassigned) [Compound 53]
- Ki [1, 13]: 71.5 nM
- Ki [3, 15]: 10.4 nM
